Reference: patent publication US20230348447A1, “OXAZOLIDINONE COMPOUNDS, LIPOSOME COMPOSITIONS COMPRISING OXAZOLIDINONE COMPOUNDS AND METHOD OF USE THEREOF” (priority 2020, published 2023)
In brackets after ≈: the same amount, converted by molar mass. Read-outs that look alike come from different tables or passages of the source.

Legend:
[1] = tested on: M.tb Erdman; assay: Broth microdilution MIC with Alamar blue endpoint (MABA) / OD600; format: cell-based, Mycobacterium tuberculosis; conditions: Mycobacterium tuberculosis
[2] = tested on: M.tb H37Rv; assay: as above; format: cell-based, Mycobacterium tuberculosis; conditions: Mycobacterium tuberculosis, H37RV
[3] = from drugbank.ca; cited from earlier work
[4] = Aqueous solubility (visually clear solutions); format: physicochemical
Experimental: Working stocks of the compounds were prepared as follows: to an aliquot of a compound (free base) in a powder form 1-1.5 equivalents of HCl in the form of 1 N aqueous solution was added, and the mixture was vortexed until homogeneity. To the resulting cake or syrup, water was added typically to the final 10 mg/ml, and complete dissolution was observed. In some instances, 0.95 equivalents of HCl were added to the free base form of the drug, and 20 mg/ml stock solution was prepared.
Aqueous solubility of the compounds of the present disclosure is illustrated by the following observations of obtaining visually clear solutions: […]

[5] = tested on: mitochondrial protein synthesis (COX-1/SDH-A ratio) in H9C2 rat heart myoblast cells; assay: Mitochondrial protein synthesis inhibition (MitoBiogenesis in-cell ELISA, COX-1/SDH-A); format: cell-based; conditions: 120 h, five days, read-out: MPS IC50
[6] = tested on: M.avium; assay: MIC in nontuberculosis mycobacteria (microbroth dilution, resazurin); format: cell-based, Mycobacterium avium; conditions: Mycobacterium avium, read-out: MIC
[7] = tested on: M. chelonae; assay: as above; format: cell-based, Mycobacterium chelonae; conditions: Mycobacteroides chelonae
[8] = tested on: M. abscessus; assay: as above; format: cell-based, Mycobacterium abscessus; conditions: Mycobacteroides abscessus, read-out: MIC
[9] = tested on: M. kansasii; assay: as above; format: cell-based; conditions: Mycobacterium kansasii
[10] = tested on: M. massiliense; assay: as above; format: cell-based, Mycobacterium massiliense
[11] = tested on: MRSA ATCC BAA-1556; conditions: cited from earlier work
[12] = tested on: MRSA ATCC BAA-1556; assay: MIC against methicillin resistant Staphylococcus aureus (MRSA)
[13] = tested on: MRSA ATCC 43300; assay: as above; conditions: read-out: MRSA MIC, ATCC 43300
[14] = tested on: MRSA 880 NR-49120; assay: as above; conditions: read-out: MRSA MIC, 880 NR-49120
[15] = ERDMAN, read-out: Mycobacterium tuberculosis MIC, Erdman
[16] = read-out: Mycobacterium tuberculosis MIC, H37Rv

For `CC(=O)NC[C@H]1CN(c2ccc(N3CCSCC3)c(F)c2)C(=O)O1` [Sutezolid, reference compound], the MIC [1, 15] is listed as 0.5 µg/mL (≈ 1.41 µM), the MIC [2, 16] is listed as 0.5 µg/mL (≈ 1.41 µM) and the known aqueous solubility [3] is listed as 237 µg/mL.

`Cn1nnc(-c2ccc(-c3ccc(N4C[C@H](CO)OC4=O)cc3F)cn2)n1` [Tedizolid, reference compound] gave an MIC [1, 15] of 0.25 µg/mL (≈ 0.675 µM), an MIC ([1]; M. tuberculosis Erdman / H37Rv, strains not separated, read-out: MIC) of 0.25 µg/mL (≈ 0.675 µM) and an MIC ([2]; as determined in Example 2, read-out: MIC (H37Rv)) of 0.25 µg/mL (≈ 0.675 µM). For the same molecule, the MIC [2, 16] was 0.25 µg/mL (≈ 0.675 µM), the “solubility in water for gradient-assisted liposome loading” value [4] was “not soluble enough in water” and the IC50 [5] was 0.143 µg/mL (≈ 0.386 µM). It also gave an MIC ([6]; M. avium sbsp. avium strain 2285 R) of 0.25 µg/mL (≈ 0.675 µM), an MIC ([6]; M. avium sbsp. avium strain 2285 S) of 0.25 µg/mL (≈ 0.675 µM) and an MIC ([6]; M. avium sbsp. avium strain 3993) of 0.25 µg/mL (≈ 0.675 µM). For the same molecule, the MIC ([7]; M. chelonae strain 49, read-out: MIC) was 0.25 µg/mL (≈ 0.675 µM), the MIC ([7]; M. chelonae strain 69, read-out: MIC) was 2 µg/mL (≈ 5.4 µM) and the MIC ([7]; M. chelonae strain 35752) was 0.125 µg/mL (≈ 0.338 µM). For the same molecule, the MIC ([8]; M. abscessus sbsp. abscessus strain 21) was 0.5 µg/mL (≈ 1.35 µM), the MIC ([8]; M. abscessus sbsp. abscessus strain 1513) was 4 µg/mL (≈ 10.8 µM) and the MIC ([8]; M. abscessus sbsp. abscessus strain 1948) was 0.5 µg/mL (≈ 1.35 µM). The MIC [9] was 0.125 µg/mL (≈ 0.338 µM), the MIC ([9]; M. kansasii strain 662, read-out: MIC) was > 32 µg/mL and the MIC ([9]; M. kansasii strain 732, read-out: MIC) was 0.25 µg/mL (≈ 0.675 µM). For the same molecule, the MIC ([9]; M. kansasii strain 824, read-out: MIC) was 0.25 µg/mL (≈ 0.675 µM), the MIC ([9]; M. kansasii strain MK13D6, read-out: MIC) was 0.25 µg/mL (≈ 0.675 µM) and the MIC ([10]; M. massiliense strain M154) was 0.06 µg/mL (≈ 0.162 µM). For the same molecule, the “activity relative to AKG-28 and AKG-38” value ([10]; M. massiliense, three strains) was “more active in all three strains evaluated”, the MIC ([10]; Mycobacteroides abscessus, CIP108297, M. massiliense strain CIP 108297, read-out: MIC) was 0.25 µg/mL (≈ 0.675 µM) and the MIC ([10]; Mycobacteroides abscessus, M. massiliense strain CRM0019, read-out: MIC) was 0.06 µg/mL (≈ 0.162 µM). For the same molecule, the “MRSA MIC described in U.S. Pat. No. 7,816,379” value [11] was 0.5 µg/mL, the MIC ([12]; read-out: MRSA MIC) was 0.206 to 0.617 µg/mL (≈ 0.556 to 1.67 µM) and the MIC ([12]; read-out: MRSA MIC, ATCC BAA-1556) was 0.617 µg/mL (≈ 1.67 µM). For the same molecule, the MIC [13] was 0.617 µg/mL (≈ 1.67 µM) and the MIC [14] was 0.206 µg/mL (≈ 0.556 µM).
